Columns and labels:
[1] = target: T1, Muscarinic acetylcholine receptor M2 (Homo sapiens, UniProt P08172)
T1 sequence (P08172 whole entry): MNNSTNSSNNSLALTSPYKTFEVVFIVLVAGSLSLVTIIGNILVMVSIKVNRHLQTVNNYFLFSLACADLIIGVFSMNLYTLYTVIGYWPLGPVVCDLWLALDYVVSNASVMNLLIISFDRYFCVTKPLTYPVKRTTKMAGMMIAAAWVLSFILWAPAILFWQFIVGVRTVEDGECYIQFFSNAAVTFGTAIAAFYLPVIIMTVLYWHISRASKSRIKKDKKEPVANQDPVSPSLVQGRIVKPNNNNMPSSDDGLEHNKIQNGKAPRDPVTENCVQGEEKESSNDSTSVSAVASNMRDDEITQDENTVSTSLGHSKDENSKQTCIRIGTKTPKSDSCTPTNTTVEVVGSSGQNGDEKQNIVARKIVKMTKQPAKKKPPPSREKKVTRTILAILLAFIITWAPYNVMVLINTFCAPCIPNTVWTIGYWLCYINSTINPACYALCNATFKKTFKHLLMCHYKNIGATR

[2] = target: T2, Thromboxane A2 receptor (Homo sapiens, UniProt P21731); format: functional, cell-based
T2 sequence (P21731 whole entry): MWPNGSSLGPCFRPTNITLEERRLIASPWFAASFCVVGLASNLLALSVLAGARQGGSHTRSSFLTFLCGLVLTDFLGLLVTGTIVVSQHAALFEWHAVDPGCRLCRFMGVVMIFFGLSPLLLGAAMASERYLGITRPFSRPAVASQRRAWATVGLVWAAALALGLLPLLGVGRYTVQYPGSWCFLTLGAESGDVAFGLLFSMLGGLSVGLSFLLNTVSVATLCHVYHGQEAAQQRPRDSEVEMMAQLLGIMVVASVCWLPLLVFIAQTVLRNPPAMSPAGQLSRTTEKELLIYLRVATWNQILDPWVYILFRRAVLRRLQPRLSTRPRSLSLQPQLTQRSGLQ

[3] = target: 3',5'-cyclic-AMP phosphodiesterase 4A (Homo sapiens, UniProt P27815); format: functional
[4] = target: Prostaglandin G/H synthase 1 (Homo sapiens, UniProt P23219); format: functional
[5] = target: T3, Adenosine receptor A3 (Homo sapiens, UniProt P0DMS8)
T3 sequence (P0DMS8 whole entry): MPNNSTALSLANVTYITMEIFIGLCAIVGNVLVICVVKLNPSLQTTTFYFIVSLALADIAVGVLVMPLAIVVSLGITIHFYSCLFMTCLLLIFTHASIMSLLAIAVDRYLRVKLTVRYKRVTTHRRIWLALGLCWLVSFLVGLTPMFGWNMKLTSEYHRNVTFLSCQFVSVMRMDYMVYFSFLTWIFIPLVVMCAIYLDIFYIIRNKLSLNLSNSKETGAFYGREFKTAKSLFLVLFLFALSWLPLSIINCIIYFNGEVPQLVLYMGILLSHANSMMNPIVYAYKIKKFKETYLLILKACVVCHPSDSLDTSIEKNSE

[6] = target: T4, Alpha-2A adrenergic receptor (Homo sapiens, UniProt P08913)
T4 sequence (P08913 whole entry): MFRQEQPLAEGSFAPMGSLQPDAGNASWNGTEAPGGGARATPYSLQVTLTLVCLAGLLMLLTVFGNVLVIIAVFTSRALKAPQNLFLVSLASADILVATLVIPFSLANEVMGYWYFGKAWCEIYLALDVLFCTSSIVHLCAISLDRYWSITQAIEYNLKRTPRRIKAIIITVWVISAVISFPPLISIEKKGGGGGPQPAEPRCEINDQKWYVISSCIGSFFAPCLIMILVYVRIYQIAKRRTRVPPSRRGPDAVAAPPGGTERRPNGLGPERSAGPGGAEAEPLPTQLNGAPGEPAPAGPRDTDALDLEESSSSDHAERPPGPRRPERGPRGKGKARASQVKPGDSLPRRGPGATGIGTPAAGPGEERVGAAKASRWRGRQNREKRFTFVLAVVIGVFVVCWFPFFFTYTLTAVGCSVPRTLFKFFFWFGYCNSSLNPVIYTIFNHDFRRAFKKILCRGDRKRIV

[7] = target: T5, 5-hydroxytryptamine receptor 1A (Homo sapiens, UniProt P08908)
T5 sequence (P08908 whole entry): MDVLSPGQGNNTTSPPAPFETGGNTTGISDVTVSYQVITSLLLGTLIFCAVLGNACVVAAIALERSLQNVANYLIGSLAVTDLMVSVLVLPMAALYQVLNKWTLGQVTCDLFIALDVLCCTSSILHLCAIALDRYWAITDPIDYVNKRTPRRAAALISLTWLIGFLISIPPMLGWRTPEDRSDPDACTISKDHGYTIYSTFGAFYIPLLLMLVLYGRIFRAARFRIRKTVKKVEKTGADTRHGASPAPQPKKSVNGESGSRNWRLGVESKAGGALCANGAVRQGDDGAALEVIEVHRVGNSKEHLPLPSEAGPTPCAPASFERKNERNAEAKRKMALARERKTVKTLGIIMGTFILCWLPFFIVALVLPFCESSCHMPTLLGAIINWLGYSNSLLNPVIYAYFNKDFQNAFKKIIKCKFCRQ

[8] = target: D(3) dopamine receptor (Homo sapiens, UniProt P35462)
[9] = target: Sodium-dependent dopamine transporter (Homo sapiens, UniProt Q01959)
[10] = target: T6, Alpha-1A adrenergic receptor (Homo sapiens, UniProt P35348); format: functional, cell-based
T6 sequence (P35348 whole entry): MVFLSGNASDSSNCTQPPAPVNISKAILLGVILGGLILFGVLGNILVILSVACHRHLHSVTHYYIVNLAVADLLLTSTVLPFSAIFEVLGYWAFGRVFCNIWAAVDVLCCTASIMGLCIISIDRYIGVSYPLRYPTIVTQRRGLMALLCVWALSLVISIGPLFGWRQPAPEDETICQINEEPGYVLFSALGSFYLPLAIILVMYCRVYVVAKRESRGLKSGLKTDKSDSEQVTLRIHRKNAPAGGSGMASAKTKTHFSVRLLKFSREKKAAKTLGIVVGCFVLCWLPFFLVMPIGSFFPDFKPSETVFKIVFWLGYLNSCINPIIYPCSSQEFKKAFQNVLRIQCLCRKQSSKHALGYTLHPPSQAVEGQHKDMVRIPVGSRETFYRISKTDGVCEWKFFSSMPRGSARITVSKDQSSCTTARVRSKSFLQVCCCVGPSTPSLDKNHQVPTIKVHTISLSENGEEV

[11] = target: cGMP-inhibited 3',5'-cyclic phosphodiesterase 3A (Homo sapiens, UniProt Q14432); format: functional
[12] = target: Voltage-gated inwardly rectifying potassium channel KCNH2 (Homo sapiens, UniProt Q12809); format: functional; settings: read-out: AC50
Note: assay procedure not described here.

Chain of D(3) dopamine receptor (P35462 whole entry): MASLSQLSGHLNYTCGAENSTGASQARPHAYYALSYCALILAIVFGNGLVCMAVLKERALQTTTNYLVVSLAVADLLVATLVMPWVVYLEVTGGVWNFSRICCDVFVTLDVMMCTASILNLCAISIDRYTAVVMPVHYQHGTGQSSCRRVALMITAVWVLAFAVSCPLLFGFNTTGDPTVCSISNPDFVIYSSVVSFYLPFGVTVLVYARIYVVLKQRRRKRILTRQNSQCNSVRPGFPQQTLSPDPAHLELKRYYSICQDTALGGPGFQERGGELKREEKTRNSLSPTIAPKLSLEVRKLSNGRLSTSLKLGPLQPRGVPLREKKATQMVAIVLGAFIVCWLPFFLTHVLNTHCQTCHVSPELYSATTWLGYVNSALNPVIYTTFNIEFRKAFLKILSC
Chain of cGMP-inhibited 3',5'-cyclic phosphodiesterase 3A (Q14432 whole entry): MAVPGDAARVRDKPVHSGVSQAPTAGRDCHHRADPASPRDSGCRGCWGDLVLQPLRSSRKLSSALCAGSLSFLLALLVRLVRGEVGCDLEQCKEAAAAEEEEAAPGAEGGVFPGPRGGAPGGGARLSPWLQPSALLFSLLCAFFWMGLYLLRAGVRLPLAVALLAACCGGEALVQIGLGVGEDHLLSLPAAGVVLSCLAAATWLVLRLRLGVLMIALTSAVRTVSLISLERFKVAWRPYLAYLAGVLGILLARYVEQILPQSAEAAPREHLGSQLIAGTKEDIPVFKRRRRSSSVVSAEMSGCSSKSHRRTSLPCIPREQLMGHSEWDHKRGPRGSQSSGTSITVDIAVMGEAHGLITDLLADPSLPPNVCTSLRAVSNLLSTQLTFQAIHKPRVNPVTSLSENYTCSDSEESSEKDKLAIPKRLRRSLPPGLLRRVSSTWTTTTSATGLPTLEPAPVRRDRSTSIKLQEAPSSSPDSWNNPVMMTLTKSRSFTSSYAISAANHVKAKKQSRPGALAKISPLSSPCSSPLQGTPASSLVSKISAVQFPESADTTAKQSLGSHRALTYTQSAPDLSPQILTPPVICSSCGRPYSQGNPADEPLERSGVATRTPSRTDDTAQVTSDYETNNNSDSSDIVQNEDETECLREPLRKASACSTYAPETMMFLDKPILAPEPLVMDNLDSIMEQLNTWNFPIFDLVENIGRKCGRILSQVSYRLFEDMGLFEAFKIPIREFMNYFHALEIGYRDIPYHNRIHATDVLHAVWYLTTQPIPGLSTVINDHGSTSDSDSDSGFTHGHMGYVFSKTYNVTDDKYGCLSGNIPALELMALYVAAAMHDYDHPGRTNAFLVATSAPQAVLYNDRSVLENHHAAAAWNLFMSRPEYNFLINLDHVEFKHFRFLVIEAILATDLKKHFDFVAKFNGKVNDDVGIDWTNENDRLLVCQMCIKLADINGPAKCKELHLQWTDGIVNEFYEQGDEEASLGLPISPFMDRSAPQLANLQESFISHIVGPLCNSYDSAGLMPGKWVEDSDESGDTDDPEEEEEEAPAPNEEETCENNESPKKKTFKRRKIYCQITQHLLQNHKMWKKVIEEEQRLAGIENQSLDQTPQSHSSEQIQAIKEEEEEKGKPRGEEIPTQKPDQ
Chain of Prostaglandin G/H synthase 1 (P23219 whole entry): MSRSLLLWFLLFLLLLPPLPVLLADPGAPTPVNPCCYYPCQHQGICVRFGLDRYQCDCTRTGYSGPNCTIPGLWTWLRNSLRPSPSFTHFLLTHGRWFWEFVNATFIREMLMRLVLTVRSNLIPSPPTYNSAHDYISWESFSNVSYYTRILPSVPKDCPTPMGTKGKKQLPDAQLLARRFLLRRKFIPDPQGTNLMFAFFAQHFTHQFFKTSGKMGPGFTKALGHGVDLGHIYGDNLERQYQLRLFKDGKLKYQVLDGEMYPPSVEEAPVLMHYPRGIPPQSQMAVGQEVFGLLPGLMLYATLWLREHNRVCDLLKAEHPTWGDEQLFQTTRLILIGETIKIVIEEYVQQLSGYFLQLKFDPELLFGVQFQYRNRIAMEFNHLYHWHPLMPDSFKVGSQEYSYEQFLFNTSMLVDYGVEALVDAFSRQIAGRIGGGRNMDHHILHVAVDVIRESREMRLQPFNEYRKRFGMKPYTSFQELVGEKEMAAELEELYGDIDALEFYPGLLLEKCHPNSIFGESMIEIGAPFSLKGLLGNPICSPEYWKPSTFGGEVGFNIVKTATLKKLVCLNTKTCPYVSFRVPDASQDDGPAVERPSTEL
Chain of Sodium-dependent dopamine transporter (Q01959 whole entry): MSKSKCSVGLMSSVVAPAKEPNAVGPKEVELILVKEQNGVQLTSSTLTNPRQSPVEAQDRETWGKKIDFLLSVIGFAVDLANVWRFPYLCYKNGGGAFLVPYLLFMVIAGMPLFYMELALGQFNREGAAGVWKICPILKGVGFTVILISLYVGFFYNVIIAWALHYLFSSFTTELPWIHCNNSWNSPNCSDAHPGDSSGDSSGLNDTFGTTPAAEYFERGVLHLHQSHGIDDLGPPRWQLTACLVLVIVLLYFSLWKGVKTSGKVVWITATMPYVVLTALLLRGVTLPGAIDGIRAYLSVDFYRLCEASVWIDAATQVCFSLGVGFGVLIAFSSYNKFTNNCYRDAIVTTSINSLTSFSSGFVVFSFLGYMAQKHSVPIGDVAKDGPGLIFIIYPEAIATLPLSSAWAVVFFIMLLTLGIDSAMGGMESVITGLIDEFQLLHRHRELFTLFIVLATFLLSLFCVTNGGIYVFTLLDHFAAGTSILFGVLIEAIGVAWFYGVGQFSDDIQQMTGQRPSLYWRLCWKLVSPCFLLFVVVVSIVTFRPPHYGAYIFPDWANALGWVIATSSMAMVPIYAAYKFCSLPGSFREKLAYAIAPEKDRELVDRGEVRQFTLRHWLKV
Chain of Voltage-gated inwardly rectifying potassium channel KCNH2 (Q12809 whole entry): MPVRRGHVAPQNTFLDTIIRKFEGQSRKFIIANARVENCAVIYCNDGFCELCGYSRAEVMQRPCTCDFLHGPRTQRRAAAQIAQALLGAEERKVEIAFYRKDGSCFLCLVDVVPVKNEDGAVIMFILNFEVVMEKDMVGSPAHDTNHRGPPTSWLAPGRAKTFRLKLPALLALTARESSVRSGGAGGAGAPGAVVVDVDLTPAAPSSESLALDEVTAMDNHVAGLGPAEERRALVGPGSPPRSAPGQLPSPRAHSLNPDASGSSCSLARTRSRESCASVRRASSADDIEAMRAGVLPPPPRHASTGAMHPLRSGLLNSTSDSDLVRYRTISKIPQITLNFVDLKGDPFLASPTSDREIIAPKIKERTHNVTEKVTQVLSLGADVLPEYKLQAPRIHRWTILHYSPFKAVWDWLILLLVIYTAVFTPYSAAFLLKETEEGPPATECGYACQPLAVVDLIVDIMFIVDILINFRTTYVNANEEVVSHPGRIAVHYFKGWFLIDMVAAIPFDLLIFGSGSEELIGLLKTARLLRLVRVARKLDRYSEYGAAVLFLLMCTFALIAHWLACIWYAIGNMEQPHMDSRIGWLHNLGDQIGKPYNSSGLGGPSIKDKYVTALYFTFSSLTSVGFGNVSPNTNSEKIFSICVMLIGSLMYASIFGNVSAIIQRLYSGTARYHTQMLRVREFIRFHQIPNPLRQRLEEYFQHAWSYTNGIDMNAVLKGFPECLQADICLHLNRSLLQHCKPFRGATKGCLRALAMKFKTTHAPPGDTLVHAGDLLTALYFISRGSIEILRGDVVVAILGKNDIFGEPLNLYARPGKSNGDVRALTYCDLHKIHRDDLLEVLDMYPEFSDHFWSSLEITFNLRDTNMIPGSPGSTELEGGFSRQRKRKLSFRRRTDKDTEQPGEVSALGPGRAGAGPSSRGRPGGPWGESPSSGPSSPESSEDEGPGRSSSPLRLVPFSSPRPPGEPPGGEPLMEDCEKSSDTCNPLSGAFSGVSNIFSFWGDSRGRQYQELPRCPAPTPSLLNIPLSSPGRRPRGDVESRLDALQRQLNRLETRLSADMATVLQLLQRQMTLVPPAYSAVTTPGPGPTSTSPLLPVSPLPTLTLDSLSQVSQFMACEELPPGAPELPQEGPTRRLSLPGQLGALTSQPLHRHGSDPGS
Chain of 3',5'-cyclic-AMP phosphodiesterase 4A (P27815 whole entry): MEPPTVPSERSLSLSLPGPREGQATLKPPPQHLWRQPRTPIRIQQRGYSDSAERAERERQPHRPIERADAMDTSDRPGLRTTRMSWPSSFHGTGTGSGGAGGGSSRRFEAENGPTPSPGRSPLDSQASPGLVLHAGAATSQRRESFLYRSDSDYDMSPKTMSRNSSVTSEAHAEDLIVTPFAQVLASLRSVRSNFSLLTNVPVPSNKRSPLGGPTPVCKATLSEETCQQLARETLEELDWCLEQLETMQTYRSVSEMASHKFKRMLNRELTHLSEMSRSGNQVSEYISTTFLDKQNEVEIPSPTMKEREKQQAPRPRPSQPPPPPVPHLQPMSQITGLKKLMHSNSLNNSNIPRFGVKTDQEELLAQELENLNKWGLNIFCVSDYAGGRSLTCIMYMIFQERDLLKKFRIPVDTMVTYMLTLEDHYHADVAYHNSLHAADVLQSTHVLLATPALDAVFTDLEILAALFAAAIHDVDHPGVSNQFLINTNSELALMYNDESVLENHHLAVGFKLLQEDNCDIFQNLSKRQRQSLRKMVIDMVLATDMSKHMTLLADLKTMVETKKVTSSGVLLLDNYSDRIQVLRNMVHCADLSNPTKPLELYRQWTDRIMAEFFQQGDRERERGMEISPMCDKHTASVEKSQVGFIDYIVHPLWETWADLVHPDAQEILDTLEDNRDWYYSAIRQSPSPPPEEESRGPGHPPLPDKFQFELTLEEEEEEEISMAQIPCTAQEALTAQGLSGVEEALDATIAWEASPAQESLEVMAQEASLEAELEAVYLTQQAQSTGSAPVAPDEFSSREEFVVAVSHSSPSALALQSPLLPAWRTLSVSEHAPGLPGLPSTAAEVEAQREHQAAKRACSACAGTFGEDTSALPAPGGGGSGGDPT

SMILES | AC50 [1] [µM] | AC50 [2] [µM] | AC50 [3] [µM] | AC50 [4] [µM] | AC50 [5] [µM] | AC50 [6] [µM] | AC50 [7] [µM] | AC50 [8] [µM] | AC50 [9] [µM] | AC50 [10] [µM] | AC50 [11] [µM] | AC50 [12] [µM]
CC(C)N1CCOC(c2cccc(C(F)(F)F)c2)C1 (centres undefined) [OXAFLOZANE] | 23.5 | > 30 | > 30 | > 30 | > 30 | > 30 | 0.513 | 1.65 | > 30 | > 30 | > 30 | > 30
CC(C)NC[C@H](O)COc1ccc(CCOCC2CC2)cc1 [LEVOBETAXOLOL] | > 30 | > 30 | > 30 | > 30 | > 30 | > 30 | > 30 | > 30 | > 30 | > 30 | > 30 | > 30
O=c1[nH]c(=O)n([C@H]2C[C@H](O)[C@@H](CO)O2)cc1/C=C/Br [BRIVUDINE] | > 30 | > 30 | > 30 | > 30 | > 30 | > 30 | > 30 | > 30 | > 30 | > 30 | > 30 | > 30
CN1CCc2c(c3ccccc3n2Cc2ccccc2)C1 [MEBHYDROLIN] | 0.268 | > 30 | > 30 | > 30 | > 30 | 0.533 | 1.04 | 1.19 | 0.334 | > 30 | > 30 | 1
Oc1ccc(OCc2ccccc2)cc1 [MONOBENZONE] | > 30 | > 30 | > 30 | 7.88 | > 30 | > 30 | > 30 | > 30 | 8.56 | > 30 | > 30 | > 30
CC(=O)OCC(=O)[C@@]1(OC(C)=O)[C@@H](C)C[C@H]2[C@@H]3C[C@H](F)C4=CC(=O)C=C[C@]4(C)[C@@]3(F)[C@@H](O)C[C@@]21C [DIFLORASONE DIACETATE] | > 30 | > 30 | > 30 | > 30 | > 30 | > 30 | > 30 | > 30 | > 30 | > 30 | > 30 | > 30
Nc1ccc(C(=O)NCC(=O)O)cc1 [AMINOHIPPURIC ACID] | > 30 | > 30 | > 30 | > 30 | > 30 | > 30 | > 30 | > 30 | > 30 | > 30 | > 30 | > 30
